Values quoted from earlier work in US10307430B2, “KATP antagonists (glibenglamid) for use for promoting growth and/or treating hyperglycaemia of a premature infant” (ASSISTANCE PUBLIQUE—HOPITAUX DE PARIS, priority 2011, dated 2019).

Columns and labels:
human fetal β cells = human fetal β cells from 14 to 20 week gestational fetus (Weinhaus et al., 2003)
[1] = preterm newborn infants, when used with caution (Mitanchez, 2007; Beardsall and Dunger, 2008)
[2] = intravenous, first week of life, very low birth weight infants (Beardsall et al., 2007)
[3] = early insulin replacement, intravenous (Beardsall et al., 2008)

COC(=O)C1=C(C)NC(C)=C([N+](=O)[O-])C1c1ccccc1C(F)(F)F (stereo not shown) [BAY K8644]
insulin secretion in response to secretagogue (human fetal β cells): able to secrete insulin

[Cl-].[K+] [KCl]
insulin secretion in response to secretagogue (human fetal β cells): able to secrete insulin

Cc1cnc(C(=O)NCCc2ccc(S(=O)(=O)NC(=O)NC3CCCCC3)cc2)cn1 [glipizide]
insulin secretion in response to secretagogue (human fetal β cells): able to secrete insulin

insulin
endogenous glucose production [1]: efficient to reduce endogenous glucose production | risk of hypoglycaemia [3]: increased risk of hypoglycaemia | weight loss in the first week of life [3]: reduced weight loss | glucose control (early insulin replacement, intravenous, 194 very-low-birth-weight infants (Beardsall et al., 2008)): improved glucose control | clinical benefit (early insulin therapy, infants with very low birth weight (Beardsall et al., 2008)): no clinical benefit | IGF-I levels [2]: increases IGF-I levels | blood glucose control [2]: improves blood glucose control
